± gives the standard deviation of the averaged measurements. One block for each compound: values may come before it.
Experiment: TIMS collisional cross section (CCS, N2) of the lipid ion; higher = larger ion cross section
Details: ionization mode: negative, one isomer drawn
Procedure: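 Lipid extracts of human plasma (NIST SRM 1950), mouse liver or HeLa cells were separated by nanoflow C18 LC (30 min gradient) and analysed by TIMS-PASEF on a timsTOF Pro. Ion mobility was calibrated with the Agilent tuning mix (negative mode ions) and converted to collisional cross sections (Mason–Schamp, N2).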
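Further: lipids from MTBE extraction, five replicate injections per sample, 100 ms TIMS ramp spanning 0.6–1.95 Vs/cm², lipid identity assigned from PASEF MS/MS spectra.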

Structure (SMILES): CCCCCC/C=C\CCCCCCCC(=O)OC[C@@H](O)COP(=O)(O)OC1[C@H](O)[C@H](O)C(O)[C@H](O)[C@H]1O (stereo not given in full) [LPI 16:1_0:0]
- TIMS collisional cross section (sample type: Human plasma, ion (formula + adduct): [C25H47O12P-H] 1-): 230.2 Å²

Structure (SMILES): CCCCCCCCCCCCCCCCCC(=O)OC[C@@H](O)COP(=O)(O)OC1C(O)C(O)C(O)[C@@H](O)C1O (stereo not given in full) [LPI 18:0_0:0]
- TIMS collisional cross section (sample type: Human plasma, ion (formula + adduct): [C27H53O12P-H] 1-): 239.4 Å²

Structure (SMILES): CCCCCCCC/C=C\CCCCCCCC(=O)OC[C@@H](O)COP(=O)(O)OC1[C@H](O)[C@H](O)C(O)[C@H](O)[C@H]1O (stereo not given in full) [LPI 18:1_0:0]
- TIMS collisional cross section (sample type: Human plasma, ion (formula + adduct): [C27H51O12P-H] 1-): 238.3 Å²

Structure (SMILES): CC/C=C\C/C=C\C/C=C\C/C=C\CCCCC(=O)OC[C@@H](O)COP(=O)(O)OC1[C@H](O)[C@H](O)C(O)[C@H](O)[C@H]1O (stereo not given in full) [LPI 18:4_0:0]
- TIMS collisional cross section (sample type: Mouse Liver, ion (formula + adduct): [C27H45O12P+AcO] 1-): 244.9 Å²

Structure (SMILES): CCCCC/C=C\C/C=C\C/C=C\CCCCCCC(=O)OC[C@@H](O)COP(=O)(O)OC1[C@H](O)[C@H](O)C(O)[C@H](O)[C@H]1O (stereo not given in full) [LPI 20:3_0:0]
- TIMS collisional cross section (sample type: Human plasma, ion (formula + adduct): [C29H51O12P-H] 1-): 240.4 Å²

Structure (SMILES): CCCCC/C=C\C/C=C\C/C=C\C/C=C\CCCC(=O)OC[C@@H](O)COP(=O)(O)OC1C(O)C(O)C(O)[C@@H](O)C1O (stereo not given in full) [LPI 20:4_0:0]
- TIMS collisional cross section (sample type: Human plasma, ion (formula + adduct): [C29H49O12P-H] 1-): 239.9 Å²
- TIMS collisional cross section (sample type: Mouse Liver, ion (formula + adduct): [C29H49O12P-H] 1-): 241 Å²

Structure (SMILES): CC/C=C\C/C=C\C/C=C\C/C=C\C/C=C\C/C=C\CCC(=O)OC[C@@H](O)COP(=O)(O)OC1[C@H](O)[C@H](O)C(O)[C@H](O)[C@H]1O (stereo not given in full) [LPI 22:6_0:0]
- TIMS collisional cross section (sample type: Human plasma, ion (formula + adduct): [C31H49O12P-H] 1-): 243.8 Å²

Structure (SMILES): CCCCCCCCCCCCCCCCCC(=O)OC[C@@H](O)COP(=O)(O)OC[C@H](N)C(=O)O [LPS 18:0_0:0]
- TIMS collisional cross section (sample type: Mouse Liver, ion (formula + adduct): [C24H48NO9P-H] 1-): 227.7 Å²

Structure (SMILES): CC/C=C\C/C=C\C/C=C\C/C=C\C/C=C\C/C=C\CCC(=O)OC[C@@H](O)COP(=O)(O)OC[C@H](N)C(=O)O [LPS 22:6]
- TIMS collisional cross section (sample type: Mouse Liver, ion (formula + adduct): [C28H44NO9P-H] 1-): 230.2 Å²

Structure (SMILES): CCCCCCCCCCCCCCCC(=O)OC[C@H](COP(=O)([O-])OCC[N+](C)(C)C)OC(=O)CCCC=O [Oxidized PC 16:0_5:0]
- TIMS collisional cross section (sample type: Human plasma, ion (formula + adduct): [C29H56NO9P+HCOO] 1-): 255.5 Å²
- TIMS collisional cross section (sample type: Mouse Liver, ion (formula + adduct): [C29H56NO9P+AcO] 1-): 258.4 Å²

The next lines start with the values.

- TIMS collisional cross section (sample type: Mouse Liver, ion (formula + adduct): [C44H80NO9P-CH3] 1-): 281.3 Å²
Structure (SMILES): CCCCC/C=C\C[C@H](O)/C=C/C=C\C/C=C\CCCC(=O)O[C@H](COC(=O)CCCCCCCCCCCCCCC)COP(=O)([O-])OCC[N+](C)(C)C [Oxidized PC 16:0@_20:4]

- TIMS collisional cross section (sample type: Mouse Liver, ion (formula + adduct): [C29H56NO10P-CH3] 1-): 240.1 Å²
Structure (SMILES): CCCCCCCCCCCCCCCC(=O)OC[C@H](COP(=O)([O-])OCC[N+](C)(C)C)OC(=O)CCCC(=O)O [Oxidized PC 16:0_5:0]

- TIMS collisional cross section (sample type: Mouse Liver, ion (formula + adduct): [C33H64NO10P-CH3] 1-): 255.5 Å²
Structure (SMILES): CCCCCCCCCCCCCCCC(=O)OC[C@H](COP(=O)([O-])OCC[N+](C)(C)C)OC(=O)CCCCCCCC(=O)O [Oxidized PC 16:0_9:0@]

- TIMS collisional cross section (sample type: Human plasma, ion (formula + adduct): [C33H64NO9P+HCOO] 1-): 267.18 ± 0.29 Å²
- TIMS collisional cross section (sample type: Human plasma, ion (formula + adduct): [C33H64NO9P-CH3] 1-): 253.8 Å²
- TIMS collisional cross section (sample type: Mouse Liver, ion (formula + adduct): [C33H64NO9P+HCOO] 1-): 267.1 ± 0.42 Å²
Structure (SMILES): CCCCCCCCCCCCCCCC(=O)OC[C@H](COP(=O)([O-])OCC[N+](C)(C)C)OC(=O)CCCCCCCC=O [Oxidized PC 16:0_9:0@]

- TIMS collisional cross section (sample type: Human plasma, ion (formula + adduct): [C44H80NO9P+HCOO] 1-): 296.77 ± 1.3 Å²
- TIMS collisional cross section (sample type: Mouse Liver, ion (formula + adduct): [C44H80NO9P+HCOO] 1-): 295.67 ± 1.9 Å²
Structure (SMILES): CCCCC/C=C\C[C@H](O)/C=C/C=C\C/C=C\CCCC(=O)O[C@H](COC(=O)CCCCCCCCCCCCCCC)COP(=O)([O-])OCC[N+](C)(C)C [Oxidized PC 16:0_20:4]

- TIMS collisional cross section (sample type: Human plasma, ion (formula + adduct): [C46H84NO9P+HCOO] 1-): 302.75 ± 1.5 Å²
- TIMS collisional cross section (sample type: Mouse Liver, ion (formula + adduct): [C46H84NO9P+HCOO] 1-): 302.3 Å²
Structure (SMILES): CCCCC/C=C\C[C@H](O)/C=C/C=C\C/C=C\CCCC(=O)O[C@H](COC(=O)CCCCCCCCCCCCCCCCC)COP(=O)([O-])OCC[N+](C)(C)C [Oxidized PC 18:0_20:4]

- TIMS collisional cross section (sample type: Human plasma, ion (formula + adduct): [C41H74NO8P+OAcO] 1-): 291.6 Å²
- TIMS collisional cross section (sample type: Human plasma, ion (formula + adduct): [C41H74NO8P-H] 1-): 274.77 ± 1.5 Å²
Structure (SMILES): CCCCC/C=C\C[C@H](O)/C=C/C=C\C/C=C\CCCC(=O)O[C@H](CO/C=C\CCCCCCCCCCCCCC)COP(=O)(O)OCCN [Oxidized PE 16:0@_20:4]

- TIMS collisional cross section (sample type: Human plasma, ion (formula + adduct): [C43H74NO8P-H] 1-): 277.4 Å²
Structure (SMILES): CC/C=C\C/C=C\CC(O)/C=C/C=C\C/C=C\C/C=C\CCC(=O)O[C@H](CO/C=C\CCCCCCCCCCCCCC)COP(=O)(O)OCCN (stereo not given in full) [Oxidized PE 16:0@_22:6]

Source: the supplement of paper PMC6965134
